Test results taken from patent publication US8258116B2, “Combination therapy for the treatment of HCV infection” (Vertex Pharmaceuticals Incorporated, priority 2007, dated 2012).

Tested on: HCV genotype 1
Test: phase 1b trial (Study VX04-950-101)
Assay type: in vivo
Conditions: subjects infected with HCV genotype 1, phase 1b
From the text: The degree to which a subject responds to treatment and the rate at which viral rebound is observed could in part be due to genotypic differences in sensitivity to the protease inhibitor. The rapid replication rate of HCV, along with the poor fidelity of its polymerase, gives rise to an accumulation of mutations throughout its genome [P. Simmonds, “Genetic diversity and evolution of hepatitis C virus—15 years on,” J. Gen. Virol., 85, pp. 3173-88 (2004)]. The degree to which sequence variability in the protease region affects the catalytic efficiency of the enzyme or the binding of an inhibitor is not known. Additionally, the generation of numerous viral genomes with remarkable sequence variation presents potential problems of emerging drug resistant virus in subjects treated with antiviral therapy. Indeed, drug resistance against antiviral drugs, such as HIV protease inhibitors, is well documented [Johnson et al., Top. HIV Med., 12, pp. 119-24 (2004)]. […] Agents Chemother., 48, pp. 2260-6 (2004); Trozzi et al., “In vitro selection and characterization of hepatitis C virus serine protease variants resistant to an active-site peptide inhibitor,” J. Virol. 77, pp. 3669-79 (2003)]. […]

**Q.** Which antiviral activity does the source give for `CCC[C@H](NC(=O)[C@@H]1[C@H]2CCC[C@H]2CN1C(=O)[C@@H](NC(=O)[C@@H](NC(=O)c1cnccn1)C1CCCCC1)C(C)(C)C)C(=O)C(=O)NC1CC1` [VX-950] here?
**A.** substantial antiviral activity
